Holding throughout (format): physicochemical
Data set [1] in a line: pH value of saturated SCY-078 salt solutions in water. The note with it: saturated salt solution in H2O, room temperature; for pH 1 hr: equilibrated 1 hour; for pH 24 hrs: equilibrated 24 hours. How it is done:
To test the pH, a solution of each compound was equilibrated at room temperature using a rolling incubator (25 rpm) for 1 hour and 24 hours before measurement.

Data set [2] in a line: Dynamic Vapor Sorption (DVS) water uptake. To be noted: for water uptake (DVS): 25° C., 80% RH; for solid form by XRPD after DVS: after DVS experiment. How it is done: Dynamic Vapor Sorption (DVS)—The term “DVS” means the procedure described in below. The relative humidity at 25° C. was calibrated against deliquescence point of LiCl, Mg(NO3)2 and KCl.
The DVS of SCY-078 salts were tested according to the above method, using a 10-20 mg sample size. The DVS was measured using a Surface Measurement Systems (SMS) DVS Intrinsic.

Data set [3] can be described thus: Chemical and physical stability of SCY-078 salts on storage (25° C./60% RH, 40° C./75% RH, 60° C.). The note with it: for physical and chemical stability: Type M 4 days, Type S 1 week. The text has this:
For all compounds tested other than the trifluoroacetate salts (Type A and B) and the HCl Type I and II salts, the conditions and parameters used for measuring solubility are shown in Table 2A and for measuring stability are showing in Table 3A. The conditions and parameters used for the solubility of the trifluoroacetate salts (Type A and B) and the HCl Type I and II salts are shown in Table 2B and for stability are shown in Table 3B.

Setting [4] is: 25° C./60% RH, open dish, 1 week.
Where [5] appears, read: 40° C./75% RH, open dish, 1 week.

The results in this text go back to patent US20190153024A1, “NOVEL SALTS AND POLYMORPHS OF SCY-078” (priority 2015, published 2019).

SMILES strings stand for the structures.

In the case of `CC(C)[C@@H](C)[C@@]1(C)CC[C@]2(C)[C@H]3CC[C@@H]4[C@@]5(COC[C@]4(C)[C@@H](OC[C@](C)(N)C(C)(C)C)[C@H](n4ncnc4-c4ccncc4)C5)C3=CC[C@@]2(C)[C@@H]1C(=O)O.CS(=O)(=O)O` [SCY-078 mesylate Type A], in data set [1], the “pH 1 hr” value is 3.4 and the “pH 24 hrs” value is reported as 3.6. Also, in data set [2], the “water uptake (DVS)” value is 11.5% and the “solid form by XRPD after DVS” value is reported as “no form change”.
In the case of `CC(C)[C@@H](C)[C@@]1(C)CC[C@]2(C)[C@H]3CC[C@@H]4[C@@]5(COC[C@]4(C)[C@@H](OC[C@](C)(N)C(C)(C)C)[C@H](n4ncnc4-c4ccncc4)C5)C3=CC[C@@]2(C)[C@@H]1C(=O)O.O=C(O)CC(O)(CC(=O)O)C(=O)O` [SCY-078 citrate Type A], in data set [1], the “pH 1 hr” value is 3.5. In data set [1], the “pH 24 hrs” value came to 3.8. Besides, the “time stable when stored” value in data set [3] (25° C. and 60% relative humidity) was “at least 1 week”; in data set [3] (40° C. and 75% relative humidity) it was “at least 1 week”; in data set [3] (60° C.), “at least 1 week”. For the same molecule, the “Impurity % by HPLC” value in data set [3] (setting [4]) is 0.09%; in data set [3] (setting [5]), 0.10%; in data set [3] (60° C., closed dish, 1 week) it was 0.17%; in data set [3] (Initial) it was 0.34%. Further, in data set [2], the “solid form by XRPD after DVS” value is listed as “No form change”.
Regarding `CC(C)[C@@H](C)[C@@]1(C)CC[C@]2(C)[C@H]3CC[C@@H]4[C@@]5(COC[C@]4(C)[C@@H](OC[C@](C)(N)C(C)(C)C)[C@H](n4ncnc4-c4ccncc4)C5)C3=CC[C@@]2(C)[C@@H]1C(=O)O.O=C(O)CC(O)(CC(=O)O)C(=O)O` [SCY-078 citrate Type S], the “physical and chemical stability” value in data set [3] (closed dish 60° C.) is “physically and chemically stable”; in data set [3] (open dish 25° C., 60% RH), “Diffraction peak shifts were observed”; in data set [3] (open dish 40° C., 75% RH) it was “Diffraction peak shifts were observed”. In addition, the “water uptake (DVS)” value in data set [2] turned out to be 8.2%. Moreover, the “solid form by XRPD after DVS” value in data set [2] is listed as “peak shifts”.
On to `CC(C)[C@@H](C)[C@@]1(C)CC[C@]2(C)[C@H]3CC[C@@H]4[C@@]5(COC[C@]4(C)[C@@H](OC[C@](C)(N)C(C)(C)C)[C@H](n4ncnc4-c4ccncc4)C5)C3=CC[C@@]2(C)[C@@H]1C(=O)O.O=C(O)CNC(=O)c1ccccc1.O=C(O)CNC(=O)c1ccccc1` [SCY-078 hippurate Type B], for which, in data set [1], the “pH 1 hr” value was 4.6 and the “pH 24 hrs” value was determined as 4.2. Besides, in data set [2], the “water uptake (DVS)” value is ~3.5% and the “solid form by XRPD after DVS” value is reported as “converted to SCY-078 hippurate Type A”.
`CC(C)[C@@H](C)[C@@]1(C)CC[C@]2(C)[C@H]3CC[C@@H]4[C@@]5(COC[C@]4(C)[C@@H](OC[C@](C)(N)C(C)(C)C)[C@H](n4ncnc4-c4ccncc4)C5)C3=CC[C@@]2(C)[C@@H]1C(=O)O.O=P(O)(O)O` [SCY-078 phosphate Type A]: in data set [1], the “pH 1 hr” value is reported as 3.4 and the “pH 24 hrs” value was 3.6. Moreover, in data set [2], the “water uptake (DVS)” value was determined as 12.5% and the “solid form by XRPD after DVS” value is reported as “no form change”.
As for `CC(C)[C@@H](C)[C@@]1(C)CC[C@]2(C)[C@H]3CC[C@@H]4[C@@]5(COC[C@]4(C)[C@@H](OC[C@](C)(N)C(C)(C)C)[C@H](n4ncnc4-c4ccncc4)C5)C3=CC[C@@]2(C)[C@@H]1C(=O)O.O=C(O)/C=C/C(=O)O` [SCY-078 fumarate Type A], in data set [1], the “pH 1 hr” value is recorded as 4.4. Also, the “pH 24 hrs” value in data set [1] is on record as 3.8. For the same molecule, the “Impurity % by HPLC” value worked out at 0.09% in data set [3] (setting [4]); 0.10% in data set [3] (setting [5]); 0.10% in data set [3] (60° C., closed dish, 1 week); 0.12% in data set [3] (Initial). Also, in data set [2], the “water uptake (DVS)” value came out at 2.5%. The “solid form by XRPD after DVS” value in data set [2] is recorded as “no form change”.
